In this experiment the target is NHE1 (Rattus norvegicus, UniProt P26431). Description: BCECF intracellular pH recovery after ammonium prepulse. It counts as cell-based.
Chain of NHE1 (P26431 whole entry): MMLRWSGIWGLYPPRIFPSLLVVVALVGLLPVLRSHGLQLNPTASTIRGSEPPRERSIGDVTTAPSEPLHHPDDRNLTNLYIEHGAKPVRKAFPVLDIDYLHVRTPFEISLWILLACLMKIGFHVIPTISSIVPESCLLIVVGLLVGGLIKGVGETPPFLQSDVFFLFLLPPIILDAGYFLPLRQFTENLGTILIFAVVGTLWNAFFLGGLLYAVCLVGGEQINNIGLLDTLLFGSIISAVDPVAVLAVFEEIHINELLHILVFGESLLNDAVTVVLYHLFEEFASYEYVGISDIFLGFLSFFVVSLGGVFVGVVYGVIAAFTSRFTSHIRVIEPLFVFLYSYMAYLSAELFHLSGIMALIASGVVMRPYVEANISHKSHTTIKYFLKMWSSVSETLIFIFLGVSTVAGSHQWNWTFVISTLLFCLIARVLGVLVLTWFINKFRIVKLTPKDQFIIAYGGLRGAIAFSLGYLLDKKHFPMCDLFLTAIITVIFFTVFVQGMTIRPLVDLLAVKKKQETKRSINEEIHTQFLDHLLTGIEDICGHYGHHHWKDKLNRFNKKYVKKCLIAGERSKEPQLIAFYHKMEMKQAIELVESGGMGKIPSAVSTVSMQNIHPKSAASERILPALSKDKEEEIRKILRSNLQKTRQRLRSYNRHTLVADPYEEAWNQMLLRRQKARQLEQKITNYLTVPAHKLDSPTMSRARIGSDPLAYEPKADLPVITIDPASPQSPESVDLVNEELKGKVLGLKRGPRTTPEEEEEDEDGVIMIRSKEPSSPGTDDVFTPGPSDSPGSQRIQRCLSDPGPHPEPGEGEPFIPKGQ

For orientation: IC50 means the point on the concentration scale where inhibition reaches its midpoint. A high value points to weaker potency in that assay. For `CC(C)c1ccc(C(=O)NC(=N)N)cc1S(C)(=O)=O` [cariporide], 1100 nM corresponded to half-maximal inhibition (IC50).

(Values after article PMC4006130 (Pflugers Archiv, 2013).)
